Assay results from US6589989B1, “Treatment of cell-mediated immune diseases” (Basilea Pharmaceutica AG, priority 1997, dated 2003).
Values joined by “and” are separate entries in the source; they are usually repeats but may differ in a detail not shown here. Identical values can stand only once.

Key:
[1] = tested on: malignant skin diseases and solid tumors of other organs; assay: High oral daily doses of 9-cis retinoic acid in malignant skin diseases and solid tumors; type: in vivo; settings: high oral daily doses of up to 300 mg
[2] = tested on: non-malignant skin-disorders, such as acne, psoriasis, lamellar ichthyosis, Darier's disease and lichen planus; settings: low daily doses of 20 to 60 mg
[3] = higher doses; Kurie et al. 1996, Miller et al. 1996; cited from earlier work
[4] = tested on: T-helper cell type 1 mediated immune diseases; assay: Low oral daily doses of 9-cis retinoic acid in T-helper cell type 1 mediated immune diseases
chronic hand eczema = assay: Once daily oral 9-cis retinoic acid in patients with chronic hand eczema refractory to conventional treatment
Method: Fifteen patients, eight men and seven women, with chronic hand eczema, refractory to conventional treatment, were treated with 9-cis retinoic acid. Their mean age was 52.3 years, range 21-83. Before the start of 9-cis retinoic acid therapy, their eczema had already lasted for 3 months to 8 years, with a mean of 29 months. […] Therapy consisted in a once daily oral dose of 40 mg 9-cis retinoic acid, given in the form of two soft gelatin capsules containing 20 mg of 9-cis retinoic acid each, with breakfast. 8 patients received in the first week only 20 mg. Mean duration of treatment was 2 months, range 1-3 months. The following lesions and symptoms were recorded on a 0-4 scale (0=none, 1=mild, 2=moderate and 4=severe) and used for evaluating the therapeutic effect: Erythema, papules and vesicles, desquamation, hyperkeratosis, rhagades and pruritus/pain. Side effects, particularly those belonging to the hypervitaminosis A syndrome, were recorded: Headache, dry lips, other mucocutaneous manifestations, muscoskeletal symptoms and laboratory abnormalities.

[5] = 0-4 scale, individual patient, after 40 mg oral daily for 1-3 months
[6] = 0-4 scale, individual patient, before 40 mg oral daily
[7] = for all 15 patients, 40 mg daily oral
[8] = for the 14 responding patients, 40 mg daily oral
[9] = for the 14 responding patients, 40 mg daily oral, listed as 9-cis retinoic acid
[10] = individual patient, 40 mg oral daily for 1-3 months

CC1=C(/C=C/C(C)=C\C=C\C(C)=C\C(=O)O)C(C)(C)CCC1 [9-cis RA, 9-cis retinoic acid]
Objective tumor regressions [1]: did not lead to major objective tumor regressions
Side effects [1]: marked to severe side effects
Therapeutic effect on non-malignant skin-disorders [2]: no therapeutic effect
Other mucocutaneous manifestations, musculoskeletal or other symptoms [3]: seen with higher doses
Other toxic signs and symptoms of the hypervitaminosis A syndrome, including the laboratory abnormalities ([4]; daily doses typically 20 to 60 mg, oral): not induced
Efficacy in treatment of T-helper cell type 1 mediated immune diseases ([4]; low daily doses of 20 to 60 mg): efficacious
Desquamation, after treatment (chronic hand eczema; [5]): 1 (5×) and 0 (6×) and 3/3 and 0/0 (2×) and 0.5
Erythema, after treatment (chronic hand eczema; [5]): 0 (9×) and 0.5 (2×) and 2 and 0/0 and 2/2 and 1
Hyperkeratosis, after treatment (chronic hand eczema; [5]): 0 (8×) and 1/1 (2×) and 1 (2×) and 3/3 and 0.5 (2×)
Papules, vesicles, after treatment (chronic hand eczema; [5]): 0 (4×) and 1 (4×) and 0/0 (6×) and 0.5
Pruritus (+ pain), after treatment (chronic hand eczema; [5]): 0 (6×) and 1 (4×) and 2 (2×) and 7/7 and 0.5 (2×)
Rhagades, after treatment (chronic hand eczema; [5]): 0 (12×) and 2 and 2/2 and 1
Desquamation, before treatment (chronic hand eczema; [6]): 2 (4×) and 3 (4×) and 1 (4×) and 3/3 and 0/0 (2×)
Erythema, before treatment (chronic hand eczema; [6]): 1 (8×) and 2 (4×) and 4 and 0/0 and 2/2
Hyperkeratosis, before treatment (chronic hand eczema; [6]): 4 and 3 and 1/1 (2×) and 2 (8×) and 1 (2×) and 3/3
Papules, vesicles, before treatment (chronic hand eczema; [6]): 3 (3×) and 2 (3×) and 1 (3×) and 0/0 (6×)
Pruritus (+ pain), before treatment (chronic hand eczema; [6]): 2 (3×) and 3 (4×) and 4 (3×) and 5 (4×) and 7/7
Rhagades, before treatment (chronic hand eczema; [6]): 3 (3×) and 2 (5×) and 1 (5×) and 0.5 and 2/2
Regression of the various lesions and symptoms (erythema, papules and vesicles etc.) (chronic hand eczema; 40 mg daily oral): 62-100%
Musculoskeletal or other symptoms (chronic hand eczema; 40 mg daily, 15 patients): no musculoskeletal or other symptoms were observed
Overall response of the patients (chronic hand eczema; all fifteen patients, 40 mg daily): responded markedly
Reduction of Lesion/symptom score, in %, mean (chronic hand eczema; [7]): 76.3%
Reduction of Lesion/symptom score, in %, range (chronic hand eczema; [7]): 0-100%
Reduction of Lesion/symptom score, in %, mean (chronic hand eczema; [8]): mean 81.8%
Reduction of Lesion/symptom score, in %, range (chronic hand eczema; [8]): for the 14 responding patients 53-100, %
Reduction of Lesion/symptom score, in %, mean (chronic hand eczema; [9]): 81.3%
Reduction of Lesion/symptom score, in %, range (chronic hand eczema; [9]): 53-100%
Response assessed by doctor (chronic hand eczema; [10]): very good (6×) and good (7×) and no and moderate
Response assessed by patient (chronic hand eczema; [10]): very good (10×) and good (3×) and moderate and no
Patients with response good, assessment by doctor, number (chronic hand eczema; of 15 patients): 7
Patients with response good, assessment by doctor, percent (chronic hand eczema; of 15 patients): (47%)
Patients with response good, assessment by patient, number (chronic hand eczema; of 15 patients): 3
Patients with response good, assessment by patient, percent (chronic hand eczema; of 15 patients): (20%)
Patients with response moderate, assessment by doctor, number (chronic hand eczema; of 15 patients): 1
Patients with response moderate, assessment by doctor, percent (chronic hand eczema; of 15 patients): (6.5%)
Patients with response moderate, assessment by patient, number (chronic hand eczema; of 15 patients): 1
Patients with response moderate, assessment by patient, percent (chronic hand eczema; of 15 patients): (6.5%)
Patients with response no, assessment by doctor, number (chronic hand eczema; of 15 patients): 1
Patients with response no, assessment by doctor, percent (chronic hand eczema; of 15 patients): (6.5%)
Patients with response no, assessment by patient, number (chronic hand eczema; of 15 patients): 1
Patients with response no, assessment by patient, percent (chronic hand eczema; of 15 patients): (6.5%)
Patients with response slight, assessment by doctor, number (chronic hand eczema; of 15 patients): 0
Patients with response slight, assessment by doctor, percent (chronic hand eczema; of 15 patients): (0%)
Patients with response slight, assessment by patient, number (chronic hand eczema; of 15 patients): 0
Patients with response slight, assessment by patient, percent (chronic hand eczema; of 15 patients): (0%)
Patients with response very good, assessment by doctor, number (chronic hand eczema; of 15 patients): 6
Patients with response very good, assessment by doctor, percent (chronic hand eczema; of 15 patients): (40%)
Patients with response very good, assessment by patient, number (chronic hand eczema; of 15 patients): 10
Patients with response very good, assessment by patient, percent (chronic hand eczema; of 15 patients): (67%)
Response considered very good or good (doctor and patient), number of patients (chronic hand eczema; of 15 patients): 13
Response considered very good or good (doctor and patient), percent of patients (chronic hand eczema; of 15 patients): 87%
Total Score (0-4 scale), after treatment (chronic hand eczema; sum of lesion/symptom scores, individual patient, after 40 mg oral daily for 1-3 months): 1 (3×) and 2 (4×) and 4.5 (2×) and 3 and 0 (3×) and 8 and 17/17
Total Score (0-4 scale), before treatment (chronic hand eczema; sum of lesion/symptom scores, individual patient, before 40 mg oral daily): 15 and 14 (2×) and 11 (4×) and 10 (2×) and 17 and 9 (2×) and 17/17 and 13 and 8
Reduction of score in % (chronic hand eczema; total score, individual patient, 40 mg oral daily for 1-3 months): 93% and 86% and 59% and 61% and 74% and 100% (3×) and 53% and 89% (2×) and 0% and 85% and 82% and 75%
